The source of these data is patent US20200339548A1, “PYRIMIDINE DERIVATIVES AND THEIR USE FOR THE TREATMENT OF CANCER” (Adorx Therapeutics Limited, priority 2017, published 2020).

As a reminder, the Ki is a dissociation constant, usually derived from enzyme kinetics or from competition with a known ligand. Broadly, the IC50 is the midpoint of a concentration-inhibition curve.

The target of one assay is T1, Adenosine A2b receptor (Homo sapiens, UniProt P29275).
T1 construct: expressed in transfected cells; host or cells: CHO cell membranes
T1 sequence (P29275 1-332): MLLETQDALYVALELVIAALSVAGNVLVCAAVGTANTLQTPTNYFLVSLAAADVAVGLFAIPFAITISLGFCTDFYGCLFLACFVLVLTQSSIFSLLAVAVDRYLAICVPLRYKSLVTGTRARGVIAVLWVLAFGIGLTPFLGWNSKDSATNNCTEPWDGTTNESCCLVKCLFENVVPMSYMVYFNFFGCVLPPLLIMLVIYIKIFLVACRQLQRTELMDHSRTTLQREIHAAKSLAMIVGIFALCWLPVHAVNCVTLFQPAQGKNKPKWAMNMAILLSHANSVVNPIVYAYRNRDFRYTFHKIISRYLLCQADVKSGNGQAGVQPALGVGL
Nature of the assay: Adenosine receptor TR-FRET binding assay, A2b. The conditions noted are these: Table 9, further testing; displacement of 30 nM CA200645, CHO cell membranes. The gist of the method:
(§1)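 Competition TR-FRET binding in CHO cell membranes expressing terbium-labelled human receptors, displacing fluorescent XAC (CA200645; 30 nM for A2b, 100 nM for A1, A2a, A3); 2 h at room temperature with saponin buffer, 1% DMSO. 665/620 nm ratio; non-specific with 10 μM XAC; Ki by Cheng–Prusoff from IC50.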

Another assay concerns Human PBMCs. Nature of the assay: CD3/CD28 stimulated IL-2 release NECA reversal assay. The conditions noted are these: Homo sapiens, PBMC, read-out: IL-2 release NECA reversal IC50 (nM), 1 uM NECA, 24 hours. The format is cell-based. The method, then: Blood is drawn from healthy volunteers using sodium citrate as the anticoagulant (0.3% final concentration). […] 50 μl diluted compound mix is added to the cells, to obtain final concentrations of 1 ug/ml CD28 antibody, 1 uM NECA and 0.003-10 μM adenosine receptor antagonist. Assay plates are incubated for 24 hours at 37° C. in a humidified incubator.

The next assay has as its target T2, Adenosine A2a receptor (Homo sapiens, UniProt P29274).
T2 construct: expressed in transfected cells; host or cells: CHO cell membranes
In words: Adenosine receptor TR-FRET binding assay, A2a. The conditions noted are these: displacement of 100 nM CA200645, CHO cell membranes. In a few lines: as §1
For orientation: Time-resolved FRET reads energy transfer from a long-lived donor to a nearby acceptor.

For the next assay, the target named is T3, Adenosine A1 receptor (Homo sapiens, UniProt P30542).
T3 construct: expressed in transfected cells; host or cells: CHO cell membranes
T3 sequence (P30542 1-326): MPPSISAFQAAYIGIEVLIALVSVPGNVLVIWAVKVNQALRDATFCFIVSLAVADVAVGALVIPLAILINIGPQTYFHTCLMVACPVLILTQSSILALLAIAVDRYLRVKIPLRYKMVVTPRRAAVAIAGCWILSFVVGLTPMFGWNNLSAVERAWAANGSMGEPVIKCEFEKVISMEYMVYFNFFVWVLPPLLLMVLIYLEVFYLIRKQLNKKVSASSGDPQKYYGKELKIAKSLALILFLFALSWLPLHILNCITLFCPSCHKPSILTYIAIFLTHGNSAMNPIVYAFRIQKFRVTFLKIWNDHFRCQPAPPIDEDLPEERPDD
Nature of the assay: Adenosine receptor TR-FRET binding assay, A1. The conditions noted are these: Table 9, further testing; displacement of 100 nM CA200645, CHO cell membranes. In a few lines: as §1

Another assay has as its target T4, Adenosine A3 receptor (Homo sapiens, UniProt P0DMS8).
T4 construct: expressed in transfected cells; host or cells: CHO cell membranes
T4 sequence (P0DMS8 1-318): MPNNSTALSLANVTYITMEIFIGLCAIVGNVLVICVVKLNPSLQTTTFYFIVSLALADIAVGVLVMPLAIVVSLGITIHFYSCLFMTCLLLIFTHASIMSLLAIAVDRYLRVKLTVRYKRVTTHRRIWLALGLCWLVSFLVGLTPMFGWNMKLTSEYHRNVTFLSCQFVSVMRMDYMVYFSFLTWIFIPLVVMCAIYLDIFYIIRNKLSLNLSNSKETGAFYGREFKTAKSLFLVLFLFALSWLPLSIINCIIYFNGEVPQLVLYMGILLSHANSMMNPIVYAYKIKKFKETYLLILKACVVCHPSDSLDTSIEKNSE
In words: Adenosine receptor TR-FRET binding assay, A3. In a few lines: as §1

[1] abbreviates: Table 9, further testing, displacement of 100 nM CA200645, CHO cell membranes, read-out: A3 Ki.

SMILES strings stand for the structures. Like-named read-outs stand apart in the source and are kept apart here.

T2 sequence (P29274 whole entry): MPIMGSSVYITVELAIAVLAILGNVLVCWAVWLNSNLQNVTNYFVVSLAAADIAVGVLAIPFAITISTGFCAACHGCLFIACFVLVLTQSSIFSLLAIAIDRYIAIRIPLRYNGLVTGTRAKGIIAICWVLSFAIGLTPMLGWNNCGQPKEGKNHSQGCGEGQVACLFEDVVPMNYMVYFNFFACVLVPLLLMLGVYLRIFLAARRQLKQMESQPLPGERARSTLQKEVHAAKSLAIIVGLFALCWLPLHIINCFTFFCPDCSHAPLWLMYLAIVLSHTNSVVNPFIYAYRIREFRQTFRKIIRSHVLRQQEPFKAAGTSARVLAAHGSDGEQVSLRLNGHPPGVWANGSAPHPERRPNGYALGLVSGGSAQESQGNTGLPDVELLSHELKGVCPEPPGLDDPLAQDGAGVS

As to `COc1nc(-c2ccco2)nc(N)c1C(=O)NCc1ncccc1C` [Example 18, 4-Amino-2-(2-furyl)-6-methoxy-N-[(3-methyl-2-pyridyl)methyl]pyrimidine-5-carboxamide], the Ki on Adenosine A2b receptor stood at 231 nM; at Adenosine A2a receptor (Table 8, Cheng and Prusoff) it was 1.1 nM; on Adenosine A2a receptor (Table 9, further testing) it was 0.64 nM; on Adenosine A1 receptor, 202 nM; at Adenosine A3 receptor (setting [1]), 201 nM. The IC50 in the assay on Human PBMCs turned out to be 37 nM.

`CC(O)CCNC(=O)c1c(N)nc(-c2cccc(C#N)c2)nc1OCCF` (stereo not shown) [Example 24.6, 4-Amino-2-(3-cyanophenyl)-6-(2-fluoroethoxy)-N-(3-hydroxybutyl)pyrimidine-5-carboxamide]: the Ki amounted to 1070 nM at Adenosine A2b receptor; 7 nM at Adenosine A2a receptor (Table 9, further testing); 629 nM at Adenosine A1 receptor; 2220 nM on Adenosine A3 receptor (setting [1]). In the assay with Human PBMCs, the IC50 came to 207 nM.

As for `Cc1cccnc1CNC(=O)c1c(N)nc(-c2ccco2)nc1OC[C@@H](C)O` [Example 20.13, 4-Amino-2-(2-furyl)-6-[(2R)-2-hydroxypropoxy]-N-[(3-methyl-2-pyridyl)methyl]pyrimidine-5-carboxamide], the Ki on Adenosine A2b receptor is 611 nM; on Adenosine A2a receptor (Table 9, further testing) it was 0.099 nM; at Adenosine A1 receptor, 9 nM; at Adenosine A3 receptor (setting [1]), 14 nM. In the assay with Human PBMCs, the IC50 turned out to be 19 nM.

`Nc1nc(-c2ccco2)ncc1C(=O)NCc1ccccc1F` [Example 5.18, 4-Amino-N-[(2-fluorophenyl)methyl]-2-(2-furyl)pyrimidine-5-carboxamide]: the Ki at Adenosine A2b receptor came out at 215 nM; on Adenosine A2a receptor (Table 8, Cheng and Prusoff), 3.8 nM; at Adenosine A2a receptor (Table 9, further testing), 3.3 nM; at Adenosine A1 receptor it was 1760 nM; on Adenosine A3 receptor (setting [1]), 1940 nM. Moreover, in the assay on Human PBMCs, the IC50 is 230 nM.

Take `Nc1nc(-c2cccc(F)c2)ncc1C(=O)NCc1ccccc1O` [Example 10.1, 4-Amino-2-(3-fluorophenyl)-N-[(2-hydroxyphenyl)methyl]pyrimidine-5-carboxamide]: the Ki came to 54 nM on Adenosine A2b receptor; 13 nM at Adenosine A2a receptor (Table 8, Cheng and Prusoff); 13 nM at Adenosine A2a receptor (Table 9, further testing); 93 nM on Adenosine A1 receptor; 421 nM at Adenosine A3 receptor (setting [1]). Besides, the IC50 in the assay with Human PBMCs amounted to 216 nM.

As to `Nc1nc(-c2cccc(F)c2)ncc1C(=O)NCc1cccc2cccnc12` [Example 10.13, 4-Amino-2-(3-fluorophenyl)-N-(8-quinolylmethyl)pyrimidine-5-carboxamide], the Ki at Adenosine A2b receptor was 415 nM; on Adenosine A2a receptor (Table 8, Cheng and Prusoff), 4.7 nM; on Adenosine A2a receptor (Table 9, further testing), 3.3 nM; at Adenosine A1 receptor, 38 nM; on Adenosine A3 receptor (setting [1]) it was 105 nM. Also, the IC50 in the assay on Human PBMCs was determined as 926 nM.

As for `Nc1nc(-c2ccco2)ncc1C(=O)NCc1cccc(Cl)c1` [Example 5.12, 4-Amino-N-[(3-chlorophenyl)methyl]-2-(2-furyl)pyrimidine-5-carboxamide], the Ki at Adenosine A2b receptor is 1570 nM; on Adenosine A2a receptor (Table 8, Cheng and Prusoff) it was 4.1 nM; at Adenosine A2a receptor (Table 9, further testing), 3.9 nM; on Adenosine A1 receptor, 962 nM; on Adenosine A3 receptor (setting [1]), 1160 nM. Also, the IC50 in the assay on Human PBMCs was 345 nM.

For the compound `Nc1nc(-c2ccco2)ncc1C(=O)NCc1ncccc1Cl` [Example 5.21, 4-Amino-N-[(3-chloro-2-pyridyl)methyl]-2-(2-furyl)pyrimidine-5-carboxamide], the Ki is 1160 nM at Adenosine A2b receptor; 1.5 nM on Adenosine A2a receptor (Table 8, Cheng and Prusoff); 1.5 nM on Adenosine A2a receptor (Table 9, further testing); 1850 nM at Adenosine A1 receptor; 1190 nM at Adenosine A3 receptor. Besides, the IC50 in the assay on Human PBMCs came to 123 nM.

Turning to `Nc1nc(-c2cccc(F)c2)ncc1C(=O)NCc1c(Cl)cccc1Cl` [Example 10.6, 4-Amino-N-[(2,6-dichlorophenyl)methyl]-2-(3-fluorophenyl)pyrimidine-5-carboxamide], the Ki at Adenosine A2b receptor is 1310 nM; at Adenosine A2a receptor (Table 8, Cheng and Prusoff), 32 nM; at Adenosine A2a receptor (Table 9, further testing), 32 nM; on Adenosine A1 receptor, 231 nM; on Adenosine A3 receptor (setting [1]) it was 160 nM. Also, the IC50 in the assay on Human PBMCs is 685 nM.

As to `Cc1cccnc1CNC(=O)c1c(N)nc(-c2ccco2)nc1OCCF` [Example 20.7, 4-Amino-6-(2-fluoroethoxy)-2-(2-furyl)-N-[(3-methyl-2-pyridyl)methyl]pyrimidine-5-carboxamide], the Ki on Adenosine A2b receptor was 29 nM; at Adenosine A2a receptor (Table 9, further testing) it was 0.11 nM; on Adenosine A1 receptor, 6.6 nM; at Adenosine A3 receptor (setting [1]), 15 nM. In addition, in the assay with Human PBMCs, the IC50 is 14 nM.

On to `Cc1cccnc1CNC(=O)c1cnc(-c2cccc(F)c2)nc1N` [Example 4.3, 4-Amino-2-(3-fluorophenyl)-N-[(3-methyl-2-pyridyl)methyl]pyrimidine-5-carboxamide], for which the Ki at Adenosine A2b receptor is 689 nM; on Adenosine A2a receptor (Table 8, Cheng and Prusoff) it was 12 nM; on Adenosine A2a receptor (Table 9, further testing), 12 nM; on Adenosine A1 receptor, 49 nM; at Adenosine A3 receptor (setting [1]), 54 nM. In addition, in the assay on Human PBMCs, the IC50 amounted to 705 nM.

Turning to `Nc1nc(-c2ccco2)ncc1C(=O)NCc1cccc2cccnc12` [Example 5.25, 4-Amino-2-(2-furyl)-N-(8-quinolylmethyl) pyrimidine-5-carboxamide], the Ki was found to be 1470 nM on Adenosine A2b receptor; 1.2 nM at Adenosine A2a receptor (Table 8, Cheng and Prusoff); 0.83 nM at Adenosine A2a receptor (Table 9, further testing); 706 nM at Adenosine A1 receptor; 506 nM on Adenosine A3 receptor (setting [1]). In addition, the IC50 with Human PBMCs was 15 nM.

On to `COc1nc(-c2ccco2)nc(N)c1C(=O)NCc1ncccc1C(F)(F)F` [Example 18.1, 4-Amino-2-(2-furyl)-6-methoxy-N-[[3-(trifluoromethyl)-2-pyridyl]methyl]pyrimidine-5-carboxamide], for which the Ki stood at 495 nM on Adenosine A2b receptor; 0.23 nM at Adenosine A2a receptor (Table 9, further testing); 176 nM on Adenosine A1 receptor; 149 nM at Adenosine A3 receptor (setting [1]). Also, in the assay on Human PBMCs, the IC50 came to 28 nM.

In the case of `CC(C)n1ncnc1CNC(=O)c1cnc(-c2cccc(F)c2)nc1N` [Example 10.15, 4-Amino-2-(3-fluorophenyl)-N-[(2-isopropyl-1,2,4-triazol-3-yl)methyl]pyrimidine-5-carboxamide], the Ki was found to be 1280 nM on Adenosine A2b receptor; 34 nM at Adenosine A2a receptor (Table 8, Cheng and Prusoff); 34 nM on Adenosine A2a receptor (Table 9, further testing); 90 nM at Adenosine A1 receptor; 2510 nM on Adenosine A3 receptor (setting [1]). The IC50 in the assay on Human PBMCs was 1290 nM.

For `CCn1ccnc1CNC(=O)c1cnc(-c2cccc(F)c2)nc1N` [Example 10.14, 4-Amino-N-[(1-ethylimidazol-2-yl)methyl]-2-(3-fluorophenyl)pyrimidine-5-carboxamide], the Ki at Adenosine A2b receptor was 1140 nM; at Adenosine A2a receptor (Table 8, Cheng and Prusoff) it was 42 nM; at Adenosine A2a receptor (Table 9, further testing), 42 nM; at Adenosine A1 receptor it was 159 nM; at Adenosine A3 receptor (setting [1]) it was 609 nM. The IC50 in the assay on Human PBMCs came out at 1240 nM.

In the case of `Cc1cccnc1CNC(=O)c1c(N)nc(-c2ccco2)nc1OCC(C)(C)C` [Example 20.10, 4-Amino-6-(2,2-dimethylpropoxy)-2-(2-furyl)-N-[(3-methyl-2-pyridyl)methyl]pyrimidine-5-carboxamide], the Ki amounted to 1220 nM at Adenosine A2b receptor; 1.8 nM on Adenosine A2a receptor (Table 9, further testing); 4.9 nM on Adenosine A1 receptor; 11 nM on Adenosine A3 receptor (setting [1]). For the same compound, the IC50 with Human PBMCs was found to be 62 nM.

Take `Cc1cccnc1CNC(=O)c1nnc(-c2cccc(C#N)c2)nc1N` [Example 17, 5-Amino-3-(3-cyanophenyl)-N-[(3-methyl-2-pyridyl)methyl]-1,2,4-triazine-6-carboxamide]: the Ki was found to be 405 nM at Adenosine A2b receptor; 3.8 nM at Adenosine A2a receptor (Table 8, Cheng and Prusoff); 2.4 nM on Adenosine A2a receptor (Table 9, further testing); 767 nM at Adenosine A1 receptor; 442 nM on Adenosine A3 receptor (setting [1]). Moreover, the IC50 in the assay on Human PBMCs is 309 nM.
